Laboratory results published in ChEMBL document CHEMBL4765257, “Synthesis and structure-activity relationship study of pyrrolidine-oxadiazoles as anthelmintics against Haemonchus contortus” (Eur J Med Chem, 2020).

Assays:
MCF-10A = assay: Cytotoxicity against human MCF-10A cells assessed as inhibition of cell viability measured after 48 hrs by DAPI staining based analysis
Haemonchus contortus [1] = assay: Anti-helmintic activity against third-stage Haemonchus contortus larvae assessed as inhibition of xL3 motility measured after 72 hrs; type: functional, organism-based
[2] = Cytotoxicity against human MCF-10A cells assessed as inhibition of cell viability at 50 uM measured after 48 hrs by DAPI staining based analysis; conditions: read-out: INH
Haemonchus contortus [3] = assay: Anti-helmintic activity against fourth stage of Haemonchus contortus larvae assessed as reduction in development of L4 stage incubated for 72 hrs followed by reincubation in humidified environment for 4 days; type: functional, organism-based
[4] = Haemonchus contortus, 72 h, read-out: IC50

Row | Compound | IC50 (MCF-10A) | IC50 (Haemonchus contortus [1]; [4]) | cytotoxicity at 48 h, 50 µM [2] | IC50 (Haemonchus contortus [3]) | IC50 (Haemonchus contortus [1])
1 | Cc1ccccc1-c1noc([C@@H]2CCCN2C(=O)Nc2ccc(Cl)cc2)n1 | > 50 µM | 0.78 µM | 36% | 50 µM | –
2 | O=C(Nc1cccc(O)c1)N1CCC[C@H]1c1nc(-c2ccccc2)no1 | – | > 100 µM | – | > 100 µM | –
3 | N#Cc1ccc(-c2noc([C@@H]3CCCN3C(=O)Nc3ccc(Cl)cc3)n2)cc1 | > 50 µM | > 100 µM | 11% | > 100 µM | –
4 | COc1ccccc1-c1noc([C@@H]2CCCN2C(=O)Nc2ccc(Cl)cc2)n1 | – | > 100 µM | – | > 100 µM | –
5 | O=C(Nc1ccc(Cl)cc1)N1CCC[C@H]1c1nc(-c2cccc(Br)c2)no1 | > 50 µM | 1.1 µM | 20% | > 100 µM | –
6 | Cc1cccc(NC(=O)N2CCC[C@H]2c2nc(-c3ccccc3)no2)c1 | – | > 100 µM | – | > 100 µM | –
7 | O=C(Nc1cccnc1)N1CCC[C@H]1c1nc(-c2ccccc2)no1 | – | > 100 µM | – | > 100 µM | –
8 | O=C(Nc1ccc(OC(F)(F)F)cc1)N1CCC[C@H]1c1nc(-c2ccccc2)no1 | > 50 µM | 4.2 µM | 18% | 13 µM | –
9 | CC(C)c1ccc(NC(=O)N2CCC[C@H]2c2nc(-c3ccccc3)no2)cc1 | – | > 100 µM | – | > 100 µM | –
10 | O=C(Nc1ccc(C(F)(F)F)cc1)N1CCC[C@H]1c1nc(-c2ccccc2)no1 | > 50 µM | 9.5 µM | 33% | 7 µM | –
11 | O=C(Nc1ccccc1I)N1CCC[C@H]1c1nc(-c2ccccc2)no1 | – | > 100 µM | – | > 100 µM | –
12 | N#Cc1cccc(NC(=O)N2CCC[C@H]2c2nc(-c3ccccc3)no2)c1 | – | > 100 µM | – | > 100 µM | –
13 | O=C(Nc1ccc([N+](=O)[O-])cc1)N1CCC[C@H]1c1nc(-c2ccccc2)no1 | > 50 µM | 50 µM | 22% | 50 µM | –
14 | O=C(Nc1ccc(Cl)cc1)N1CCC[C@@H]1c1nc(-c2ccccc2)no1 | – | > 100 µM | – | > 100 µM | –
15 | O=C(Nc1ccc(Cl)cc1)N1CCC[C@H]1c1nc(-c2ccccc2F)no1 | > 50 µM | – | 30% | > 100 µM | Active
16 | CC(=O)c1ccccc1NC(=O)N1CCC[C@H]1c1nc(-c2ccccc2)no1 | – | > 100 µM | – | > 100 µM | –
17 | N#Cc1ccc(NC(=O)N2CCC[C@H]2c2nc(-c3ccccc3)no2)cc1 | > 50 µM | 18 µM | 27% | > 100 µM | –
18 | COc1ccccc1NC(=O)N1CCC[C@H]1c1nc(-c2ccccc2)no1 | – | > 100 µM | – | > 100 µM | –
19 | COc1ccc(-c2noc([C@@H]3CCCN3C(=O)Nc3ccc(Cl)cc3)n2)cc1 | > 50 µM | 50 µM | 13% | > 100 µM | –
20 | Cc1ccccc1NC(=O)N1CCC[C@H]1c1nc(-c2ccccc2)no1 | – | > 100 µM | – | > 100 µM | –
21 | O=C(Nc1ccccc1F)N1CCC[C@H]1c1nc(-c2ccccc2)no1 | – | > 100 µM | – | > 100 µM | –
22 | O=C(Nc1ccc(Cl)cc1)N1CCC[C@H]1c1nc(-c2ccc(F)cc2)no1 | > 50 µM | 1.3 µM | 22% | 19 µM | –
23 | O=C(Nc1cccc(Br)c1)N1CCC[C@H]1c1nc(-c2ccccc2)no1 | – | > 100 µM | – | > 100 µM | –
24 | O=C(Nc1ccc(Cl)cc1)N1CCC[C@H]1c1nc(-c2ccccc2O)no1 | – | > 100 µM | – | > 100 µM | –
25 | O=C(Nc1ccccc1Br)N1CCC[C@H]1c1nc(-c2ccccc2)no1 | – | > 100 µM | – | > 100 µM | –
26 | O=C(Nc1ccc(Cl)cc1)N1CCCC1c1nc(-c2ccccc2)no1 (stereo not given) | – | 3.46 µM | – | 0.31 µM | –
27 | O=C(Nc1ccncc1)N1CCC[C@H]1c1nc(-c2ccccc2)no1 | – | > 100 µM | – | > 100 µM | –
28 | O=C(Nc1ccc(Cl)cc1)N1CCC[C@H]1c1nc(-c2ccc(Br)cc2)no1 | > 50 µM | – | 30% | > 100 µM | Active
29 | O=C(Nc1cccc(F)c1)N1CCC[C@H]1c1nc(-c2ccccc2)no1 | – | > 100 µM | – | > 100 µM | –
